In patent US20140315781A1, “METHODS OF TREATING FATTY LIVER DISEASE WITH HELMINTH-DERIVED GLYCAN-CONTAINING COMPOUNDS” (priority 2011, published 2014):

What was measured:
[1] = test system: primary mouse hepatocytes
[2] = test system: human FXRα promoter 1 (FXRα1/α2); experiment: Luciferase reporter assay, FXRα promoter 1, in HepG2 cells; format: cell-based; conditions: with or without LNnT, p<0.05, FIG. 4b
Method: HepG2 cells, obtained from ATCC (#HB-8065), were cultured in Eagle's minimal essential media supplemented with non-essential amino acids, L-glutamine, sodium pyruvate, sodium bicarbonate, 10% fetal bovine serum, and antibiotics.
(§1) The upstream promoter 1 and downstream promoter 2 regions of the human FXRα gene were cloned into the pGL3-basic luciferase reporter construct and transfected into HepG2 cells in a 96-well format or primary hepatocytes in a 24-well format using a luciferase system (Promega). A β-galactosidase reporter construct was used as a transfection control. Promoters 1 and 2 of the human FXRα gene were PCR amplified and cloned into the pGL3-basic luciferase reporter (Promega). Point mutations were introduced using the site-directed mutagenesis kit (Stratagene).
Both human and mouse FXRα contain two major promoters (FIG. 2c). […] To examine the signalling pathways through which LNFPIII regulates FXRα activity, the activities of luciferase reporters driven by upstream (promoter 1) or downstream (promoter 2) regulatory regions were examined in HepG2 cells (human hepatoma cells). Reporters driven by a 2 kb fragment of human FXRα promoter 1 or a 0.13 kb fragment of human FXRα promoter 2 were transfected into HepG2 cells. Twenty-four hours after transfection, cells were treated with or without LNFPIII (20 μg/ml) or SEA (2 μg/ml) for an additional 24 hours.

[3] = test system: primary mouse hepatocytes; conditions: PD98059 1 hour prior to overnight LNFPIII, FIG. 3i
Erk [4] = experiment: Immunoblot of phospho-Erk in primary hepatocytes; format: cell-based, mouse; conditions: PD98059 1 hour prior to overnight LNFPIII, FIG. 3g
Method: FIG. 3G (left panel) is an immunoblot for levels of phospho-Erk (p-Erk) and total Erk (t-Erk) in primary hepatocytes treated with vehicle, LNFPIII, PD90859, or LNFPIII+PD98059. Cells were pretreated with PD98059 for 1 hour prior to overnight LNFPIII treatment. Actin levels served as a loading control. FIG. 3G (right panel) is a bar graph depicting the densitometric analysis of the immunoblot from FIG. 3G (left panel). Results are presented as mean±SEM.
FIG. 3H is an immunoblot for levels of p-Erk and t-Erk in primary hepatocytes treated with vehicle, SEA, or SEA+PD98059. Cells were pretreated with PD98059 for 1 hour prior to overnight SEA treatment. Actin levels served as a loading control.
(§2) For Western blot analyses, tissue and cell lysates were prepared in lysis buffer (20 mM Tris-HCl, 100 mM NaCl, 1 mM EDTA, NP-40, glycerol, PMSF, and DTT) in the presence of protease and phosphatase inhibitors. The four FXRα (NR1H4) isoforms were based on previous reports, which were originally designated as FXRα1/α2 and FXRβ1/β2 (Huber et al., Gene 2002; 290:35-43; Zhang et al., JBC 2003; 278:104-10). The latter were renamed FXRα3/α4 to avoid confusion with rodent FXRβ (NR1H5) (Lefebvre et al., Physiol Rev 2009; 89:147-91).

[5] = test system: human FXRα promoter 2 (FXRα3/α4); experiment: Luciferase reporter assay, FXRα promoter 2, in HepG2 cells; format: cell-based
Text: as §1
To examine the signalling pathways through which LNFPIII regulates FXRα activity, the activities of luciferase reporters driven by upstream (promoter 1) or downstream (promoter 2) regulatory regions were examined in HepG2 cells (human hepatoma cells). Reporters driven by a 2 kb fragment of human FXRα promoter 1 or a 0.13 kb fragment of human FXRα promoter 2 were transfected into HepG2 cells. Twenty-four hours after transfection, cells were treated with or without LNFPIII (20 μg/ml) or SEA (2 μg/ml) for an additional 24 hours.
To gain insight into the region of promoter 2 responsible for promoter activation, the minimal LNFPIII responsive region was determined through a series of promoter deletion mutants.

livers of mice = conditions: mouse, in vivo
Erk [6] = experiment: Immunoblot of phospho-Erk in liver lysates of treated mice; format: in vivo; conditions: FIG. 3f
Method: FIG. 3F (top panel) is an immunoblot for levels of phosphor-Erk (p-Erk) and total Erk (t-Erk) in liver lysates prepared from vehicle or LNFPIII treated mice (n=5, showing representative 3 samples/treatment). Actin levels served as a loading control. FIG. 3F (bottom panel) is a bar graph depicting the densitometric analysis of the immunoblot from FIG. 3F (top panel). Results are presented as mean±SEM. *p<0.05.
as §2

[7] = test system: Male C57BL/6J mice on a high-fat, high carbohydrate diet; experiment: High fat diet-induced steatosis and liver function in mice (histology, liver triglycerides, circulating AST/ALT); format: in vivo; conditions: vs vehicle
Method: (§3) Male C57BL/6J mice (8-10 weeks of age) were placed on a high-fat, high carbohydrate diet (F3282, Bio-Serv) for the duration for the experiments. After 6 weeks of the special diet, mice were intraperitoneally injected 2 times per week with 25 μg of dextran (vehicle) or 25 μg of LNFPIII conjugated with dextran (LNFPIII-dex). A second cohort was treated with 0.9% NaCl or SEA dissolved in 0.9% NaCl (25 μg/mouse/twice a week). Metabolic studies started 4 weeks after LNFPIII or SEA treatment and were conducted after 6 hrs of fasting. Animals were sacrificed at the 6th week of treatment for serum and tissue collection. Most experiments were repeated in two cohorts (n=4-7/treatment). Body weight and food intake were monitored weekly.
Circulating levels of ALT and AST, markers of overall liver function, were measured using commercial kits as described in Liu et al. (JBC 2011; 286:1237-47).
The Dana Farber/Harvard Cancer Center Research Pathology Cores provided all histological services and preliminary assessments by a pathologist. Briefly, tissues were collected from animals and fixed in 10% formalin (liver) for 48 hours. Fixed samples were rinsed in PBS and sent to the histology core to be paraffin embedded, sectioned, and stained with hematoxylin and eosin according to standard procedures. A staff pathologist analyzed the samples for signs of inflammation, fatty liver, fibrosis, and other pathologies associated with the liver.
In this example, the ability of LNFPIII or SEA to prevent high fat diet-induced steatosis and preserve liver function was examined. Mice were injected with either vehicle (dextran, 25 μg), LNFPIII conjugated to dextran (25 μg), or SEA twice a week (n=5 for each group) as described in the Methods section.
To determine whether overall liver function was affected by LNFPIII treatment, circulating levels of AST and ALT were also examined.

FXRα−/− mice = experiment: LNFPIII treatment of FXRα−/− mice (liver mRNA, hepatic triglyceride, serum AST/ALT); format: in vivo
Text: Male C57BL/6J mice (8-10 weeks of age) were purchased from The Jackson Laboratory (Bar Harbor, Me.). FXR α−/− mice (both in the C57BL/6J background) were obtained from The Jackson Laboratory. All animal studies were approved by the Harvard Medical Area Standing Committee on Animals.
as §3
Furthermore, to determine whether FXRα mediated the effects of LNFPIII on lipogenesis and fatty acid oxidation, primary hepatocytes were isolated from wild type or FXRα^−/− mice, cultured, and tested for de novo lipogenesis and fatty acid oxidation.

[8] = high fat diet mice, p<0.05, FIG. 1d/1e
[9] = FIG. 2d, primary hepatocytes treated for 24 hours
[10] = FIG. 2d, primary hepatocytes treated for 24 hours, p<0.05

Compound: CC(=O)N[C@H]1[C@H](O[C@H]2[C@@H](O)[C@@H](CO)O[C@@H](O[C@H]3[C@H](O)[C@@H](O)C(O)O[C@@H]3CO)[C@@H]2O)O[C@H](CO)[C@@H](O[C@@H]2O[C@H](CO)[C@H](O)[C@H](O)[C@H]2O)[C@@H]1O (mixture of isomers) [LNnT, lacto-N-neotetraose]
- lipogenesis in cultured primary hepatocytes [1]: blocked lipogenesis in cultured primary hepatocytes in a dose-dependent manner
- activity of the FXRα1/α2 promoter in a luciferase assay [2]: significantly increased

Compound: COc1cccc(-c2cc(=O)c3ccccc3o2)c1N [PD98059, reference compound]
- ability of LNFPIII to increase β-oxidation in presence of PD98059 [3]: completely abolished
- activation of Erk in response to LNFPIII in presence of PD98059 (Erk [4]): completely abolished
- responsiveness of the FXRα promoter 2 to LNFPIII in presence of PD98059 [5]: completely abolished
- ability of LNFPIII to suppress lipid synthesis in presence of PD98059 [1]: completely abolished

Compound: lacto-N-fucopentaose III [LNFPIII]
- ability of LNFPIII to increase β-oxidation in presence of PD98059 [3]: dependent on Erk activity and FXRα
- ACC1/2 mRNA in livers (livers of mice): significantly reduced
- Arg1 (M2 marker) mRNA in liver tissue (livers of mice): significantly higher levels
- F4/80 mRNA in liver tissue (livers of mice): significantly lower levels
- FAS mRNA in livers (livers of mice): significantly reduced
- IL-1β mRNA in liver tissue (livers of mice): unchanged
- IL-6 mRNA in liver tissue (livers of mice): significantly lower levels
- Mgl1 (M2 marker) mRNA in liver tissue (livers of mice): significantly higher levels
- SCD1 mRNA in livers (livers of mice): significantly reduced
- SREBP-1c mRNA in livers (livers of mice): significantly reduced
- β-oxidation gene expression in livers (livers of mice): did not affect
- Erk phosphorylation in liver (Erk [6]): increased
- activation of FXRα promoter 2 reporter with mutated overlapping AP-1 sites (site 3) ([5]; HepG2, site-directed mutagenesis, FIG. 3d, 3e): two overlapping AP-1 sites were required for the activation
- high fat diet-induced hepatic lipid accumulation (histology) ([7]; 25 μg i.p. twice a week, 6 weeks, FIG. 1a): less high fat diet-induced hepatic lipid accumulation
- levels of triglycerides in livers ([7]; 25 μg twice a week, p<0.05, FIG. 1b): significantly lower levels
- circulating levels of ALT [7, 8]: significantly reduced levels
- circulating levels of AST [7, 8]: significantly reduced levels
- ability of LNFPIII to suppress lipid synthesis in presence of PD98059 [1]: dependent on Erk activity and FXRα
- lipogenesis in primary hepatocytes ([1]; 20 μg/ml, 24 hours): significantly suppressed
- β-oxidation gene expression in primary hepatocytes (primary hepatocytes): did not affect
- FXRα1/α2 mRNA expression (primary hepatocytes; [9]): remained unchanged
- LXRα mRNA expression (primary hepatocytes; [9]): remained unchanged
- BSEP transcripts (primary hepatocytes; [10]): significantly upregulated
- OATP transcripts (primary hepatocytes; [10]): significantly upregulated
- PLTP transcripts (primary hepatocytes; [10]): significantly upregulated
- SHP transcripts (primary hepatocytes; [10]): significantly upregulated
- FXRα3/α4 transcripts (primary hepatocytes; FIG. 2d, primary hepatocytes treated for 24 hours, vs vehicle, p<0.05): significantly upregulated
- reduction in serum ALT concentration, wild type vs FXR−/− mice (FXRα−/− mice; FIG. 2i, p<0.05): required FXRα expression
- reduction in serum AST concentration, wild type vs FXR−/− mice (FXRα−/− mice; FIG. 2i, p<0.05): required FXRα expression
- reduction in hepatic triglyceride content, wild type vs FXR−/− mice (FXRα−/− mice; FIG. 2h, p<0.05): required FXRα expression
- Acc1 mRNA expression in FXRα−/− mice (FXRα−/− mice; livers, FIG. 2f): did not reduce
- Acc2 mRNA expression in FXRα−/− mice (FXRα−/− mice; livers, FIG. 2f): did not reduce
- Fas mRNA expression in FXRα−/− mice (FXRα−/− mice; livers, FIG. 2f): did not reduce
- Scd1 mRNA expression in FXRα−/− mice (FXRα−/− mice; livers, FIG. 2f): did not reduce
- Srebp mRNA expression in FXRα−/− mice (FXRα−/− mice; livers, FIG. 2f): did not reduce
